Assay results reported in patent US20250195463A1, “ORGANOMETALLIC COMPLEX, CONTROLLED-RELEASE MULTI-FUNCTIONAL DRUG, PHARMACEUTICAL COMPOSITION, PROCESSES FOR THE PREPARATION THEREOF AND THEIR USE” (FACULDADE DE CIÊNCIAS DA UNIVERSIDADE DE LISBOA, priority 2022, published 2025).

Experiments:
MDA-MB-231 (FGFR−) = assay: MTT cytotoxicity assay; settings: MDA-MB-231
Procedure: By way of example, the in vitro cytotoxicity of the conjugate RuPC1, complex 4 and peptide P2 was determined in four human breast cancer cell lines with different levels of expression of the receptor FGFR, namely MDA-MB-231 (FGFR−), MCF-7 (FGFR−), SK-BR-3 (FGFR+), and MDA-MB-134-VI (FGFR+). The cytotoxicity of RuPC1 was also determined in the stated cell lines at controlled pH 6.8 and 7.4. The cytotoxicity of the complexes 5, 8, 9, and the reference complex (2,2′-bipyridyl)(triphenylphosphane)(f-cyclopentadienyl)ruthenium(II) trifluoromethanesulfonate, [RuCp(PPh3)(bipy)][CF3SO3] (TM34) was only determined in the cell line MDA-MB-231. All the cell lines were from the American Type Culture Collection (ATCC) and were cultured in Dulbecco's Modified Eagle Medium+Glutamax-I (Gibco) supplemented with 10% fetal bovine serum (FBS) and 1% antibiotics, excepting the MDA-MB-134-VI for which it was used the double amount of FBS. The cell cultures were kept in an incubator Heraeus at 37° C. under humidified atmosphere at 5% CO2. The cell viability was evaluated resorting to the MTT ([3-(4,5-dimethylthiazol-2-yl)-2,5-diphenyltetrazolium bromide]) colorimetric assay, which is based on the reduction of the tetrazolium salt to purple formazan by mitochondrial dehydrogenases in metabolically active cells. For the assays, the cells were seeded in 96-well plates (2×10^4 to 3×10^4 cells/200 μL) and allowed to adhere overnight. The compounds were first dissolved in dimethyl sulfoxide to obtain 10 mM stock solutions, further used to prepare the working solutions, at 0.1 to 100 μM, by dilution in the cell culture medium. Alternatively, for the assays at controlled pH 6.8 and 7.4, RuPC1 was first dissolved in a solution of 15% dimethyl sulfoxide/85% phosphate buffer (10 mM in water) to obtain 1.5 mM stock solutions further incubated for 48 hours at both pH values prior to be used to prepare the working solutions, at 0.1 to 50 μM, by dilution in the cell culture medium. In both cases, after continuous exposure of the cells to the compounds for 48 h at 37° C., the medium was removed and the cells were incubated with 200 μL of MTT solution (0.5 mg/mL) for 3 h. Then, the solution was discarded and the purple formazan formed by the viable cells was dissolved in 200 μL of dimethyl sulfoxide. The cell viability (%) was determined relative to the control (cells incubated without compounds) by measuring the absorbance at 570 nm on a PowerWave Xs Bio-Tek Instruments plate spectrophotometer. The respective values of the half maximal inhibitory concentration (IC50) were calculated with the software GraphPad Prism. All the compounds were tested in at least two independent experiments, each comprising six replicates per concentration.

[1] = Stability in aqueous medium (dimethyl sulfoxide/Dulbecco's Modified Eagle Medium) by UV-Vis spectroscopy; type: physicochemical; settings: 5% dimethyl sulfoxide/95% Dulbecco's Modified Eagle Medium; for Relative variation of the maximum absorbance of the π→π* transitions: band 292-296 nm (λmax in column head); for Relative variation of the maximum absorbance of the charge transfer bands: band 358-400 nm (λmax in column head)
Procedure: (§1) The stability of the complexes 4-11 in organic and aqueous media was evaluated over 24 h by UV-Vis spectroscopy at room temperature, in dark, on a Jasco V-660 spectrometer using quartz cuvettes (1 cm optical path length). The electronic spectra (270-900 nm) were acquired at regular periods of time (0 h, 0.25 h, 0.5 h, 0.75 h, 1 h, 2 h, 3 h, 4 h, 5 h, 6 h, 24 h) for solutions of 100% dimethyl sulfoxide (complexes 4-11) and 5% dimethyl sulfoxide/95% Dulbecco's Modified Eagle Medium (complexes 4, 5 and 8-11) or 10% dimethyl sulfoxide/90% Dulbecco's Modified Eagle Medium (complexes 6 and 7) at concentrations ranging from 7.0×10^-5 M to 3.0×10^-4 M.

[2] = Stability in organic medium (dimethyl sulfoxide) by UV-Vis spectroscopy; type: physicochemical; settings: for Relative variation of the maximum absorbance of the π→π* transitions: band 289-300 nm (λmax in column head); for Relative variation of the maximum absorbance of the charge transfer bands: band 357-425 nm (λmax in column head)
Procedure: as §1

CCC(=O)C1=C[CH]([Ru-]2([PH](c3ccccc3)(c3ccccc3)c3ccccc3)[n+]3ccccc3-c3cccc[n+]32)C=C1.O=S(=O)([O-])C(F)(F)F (stereo not shown) [compound 8]
IC50 range in words (MDA-MB-231 (FGFR−); Example 24): sub-micromolar range
IC50 (MDA-MB-231 (FGFR−); read-out: Cytotoxic activity expressed as IC50, Table 5, 48 h, 37° C.): 560 nM
Relative variation of the maximum absorbance of the π→π* transitions ([1]; time 0 h): 0.0%
Relative variation of the maximum absorbance of the charge transfer bands ([1]; time 0 h): 0.0%
Relative variation of the maximum absorbance of the π→π* transitions ([1]; time 0.25 h): −0.1%
Relative variation of the maximum absorbance of the charge transfer bands ([1]; time 0.25 h): −0.3%
Relative variation of the maximum absorbance of the π→π* transitions ([1]; time 0.5 h): −0.2%
Relative variation of the maximum absorbance of the charge transfer bands ([1]; time 0.5 h): −0.6%
Relative variation of the maximum absorbance of the π→π* transitions ([1]; time 0.75 h): 0.0%
Relative variation of the maximum absorbance of the charge transfer bands ([1]; time 0.75 h): −0.7%
Relative variation of the maximum absorbance of the π→π* transitions ([1]; time 1 h): −0.1%
Relative variation of the maximum absorbance of the charge transfer bands ([1]; time 1 h): −0.9%
Relative variation of the maximum absorbance of the π→π* transitions ([1]; time 2 h): 0.0%
Relative variation of the maximum absorbance of the charge transfer bands ([1]; time 2 h): −0.7%
Relative variation of the maximum absorbance of the π→π* transitions ([1]; time 3 h): 0.1%
Relative variation of the maximum absorbance of the charge transfer bands ([1]; time 3 h): −0.6%
Relative variation of the maximum absorbance of the π→π* transitions ([1]; time 4 h): 0.0%
Relative variation of the maximum absorbance of the charge transfer bands ([1]; time 4 h): −0.6%
Relative variation of the maximum absorbance of the π→π* transitions ([1]; time 5 h): 0.1%
Relative variation of the maximum absorbance of the charge transfer bands ([1]; time 5 h): −0.6%
Relative variation of the maximum absorbance of the π→π* transitions ([1]; time 6 h): 0.1%
Relative variation of the maximum absorbance of the charge transfer bands ([1]; time 6 h): −0.5%
Relative variation of the maximum absorbance of the π→π* transitions ([1]; time 24 h): 6.0%
Relative variation of the maximum absorbance of the charge transfer bands ([1]; time 24 h): −0.9%
Relative variation of the maximum absorbance of the π→π* transitions ([2]; time 0 h): 0.0%
Relative variation of the maximum absorbance of the charge transfer bands ([2]; time 0 h): 0.0%
Relative variation of the maximum absorbance of the π→π* transitions ([2]; time 0.25 h): 0.0%
Relative variation of the maximum absorbance of the charge transfer bands ([2]; time 0.25 h): 0.0%
Relative variation of the maximum absorbance of the π→π* transitions ([2]; time 0.5 h): 0.2%
Relative variation of the maximum absorbance of the charge transfer bands ([2]; time 0.5 h): 0.1%
Relative variation of the maximum absorbance of the π→π* transitions ([2]; time 0.75 h): 0.0%
Relative variation of the maximum absorbance of the charge transfer bands ([2]; time 0.75 h): 0.0%
Relative variation of the maximum absorbance of the π→π* transitions ([2]; time 1 h): 0.1%
Relative variation of the maximum absorbance of the charge transfer bands ([2]; time 1 h): 0.3%
Relative variation of the maximum absorbance of the π→π* transitions ([2]; time 2 h): 0.0%
Relative variation of the maximum absorbance of the charge transfer bands ([2]; time 2 h): 0.2%
Relative variation of the maximum absorbance of the π→π* transitions ([2]; time 3 h): −0.3%
Relative variation of the maximum absorbance of the charge transfer bands ([2]; time 3 h): 0.0%
Relative variation of the maximum absorbance of the π→π* transitions ([2]; time 4 h): −0.1%
Relative variation of the maximum absorbance of the charge transfer bands ([2]; time 4 h): 0.0%
Relative variation of the maximum absorbance of the π→π* transitions ([2]; time 5 h): −0.1%
Relative variation of the maximum absorbance of the charge transfer bands ([2]; time 5 h): −0.3%
Relative variation of the maximum absorbance of the π→π* transitions ([2]; time 6 h): −0.2%
Relative variation of the maximum absorbance of the charge transfer bands ([2]; time 6 h): 0.3%
Relative variation of the maximum absorbance of the π→π* transitions ([2]; time 24 h): −0.2%
Relative variation of the maximum absorbance of the charge transfer bands ([2]; time 24 h): 0.2%
